Source: ChEMBL document CHEMBL1909046, “DrugMatrix in vitro pharmacology data”

Key:
[1] = target: T1, Alpha-1A adrenergic receptor (Rattus norvegicus, UniProt P43140); assay: DRUGMATRIX: Alpha-1A adrenergic receptor radioligand binding (ligand: prazosin); assay type: cell membranes, Wistar, Submaxillary gland, Membrane; settings: Not Active = under 50% inhibition at 10 µM
T1 sequence (P43140 whole entry): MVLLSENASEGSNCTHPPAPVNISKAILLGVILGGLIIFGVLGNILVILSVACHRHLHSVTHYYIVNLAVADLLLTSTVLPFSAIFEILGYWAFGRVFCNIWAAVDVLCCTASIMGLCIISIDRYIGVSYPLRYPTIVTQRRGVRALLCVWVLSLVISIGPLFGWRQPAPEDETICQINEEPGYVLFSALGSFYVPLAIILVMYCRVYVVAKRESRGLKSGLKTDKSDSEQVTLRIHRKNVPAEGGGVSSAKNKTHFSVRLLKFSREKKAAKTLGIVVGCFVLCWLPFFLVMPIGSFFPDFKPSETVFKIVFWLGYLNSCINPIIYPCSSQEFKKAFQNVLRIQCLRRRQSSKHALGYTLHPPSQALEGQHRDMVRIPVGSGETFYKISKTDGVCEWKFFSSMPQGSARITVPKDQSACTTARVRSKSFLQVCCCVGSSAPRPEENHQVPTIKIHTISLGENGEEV

[2] = target: T2, Alpha-2C adrenergic receptor (Homo sapiens, UniProt P18825); assay: DRUGMATRIX: Adrenergic Alpha-2C radioligand binding (ligand: [3H] MK-912); assay type: cell membranes, Sf9, Membrane
T2 sequence (P18825 whole entry): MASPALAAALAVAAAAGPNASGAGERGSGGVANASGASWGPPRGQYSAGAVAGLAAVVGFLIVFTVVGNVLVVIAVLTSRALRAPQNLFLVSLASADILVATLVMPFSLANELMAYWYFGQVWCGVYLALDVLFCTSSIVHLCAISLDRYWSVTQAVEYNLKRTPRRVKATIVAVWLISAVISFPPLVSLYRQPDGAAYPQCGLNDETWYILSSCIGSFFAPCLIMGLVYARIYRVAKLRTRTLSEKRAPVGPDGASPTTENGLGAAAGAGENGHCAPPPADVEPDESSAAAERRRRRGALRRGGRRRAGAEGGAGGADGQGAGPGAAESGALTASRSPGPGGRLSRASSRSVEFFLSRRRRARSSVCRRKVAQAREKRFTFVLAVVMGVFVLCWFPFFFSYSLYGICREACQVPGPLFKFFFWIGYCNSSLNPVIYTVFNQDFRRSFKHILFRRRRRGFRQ

[3] = target: Beta-2 adrenergic receptor (Homo sapiens, UniProt P07550); assay: DRUGMATRIX: Adrenergic beta2 radioligand binding (ligand: [3H] CGP-12177); assay type: cell membranes, CHO, Membrane; settings: Not Active = under 50% inhibition at 10 µM
Sequence of Beta-2 adrenergic receptor (P07550 whole entry): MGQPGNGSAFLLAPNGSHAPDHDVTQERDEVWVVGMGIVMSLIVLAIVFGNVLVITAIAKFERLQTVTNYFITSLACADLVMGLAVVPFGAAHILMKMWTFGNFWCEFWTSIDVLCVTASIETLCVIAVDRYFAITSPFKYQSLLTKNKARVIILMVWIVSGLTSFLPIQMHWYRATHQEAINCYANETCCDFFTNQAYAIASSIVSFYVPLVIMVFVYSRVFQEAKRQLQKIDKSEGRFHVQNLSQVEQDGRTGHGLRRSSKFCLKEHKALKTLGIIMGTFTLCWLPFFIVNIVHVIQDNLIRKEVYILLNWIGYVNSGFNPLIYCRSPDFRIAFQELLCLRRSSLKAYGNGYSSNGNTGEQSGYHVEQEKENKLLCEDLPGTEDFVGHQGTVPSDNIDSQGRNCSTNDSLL

[4] = DRUGMATRIX: Serotonin (5-Hydroxytryptamine) 5-HT3 radioligand binding (ligand: [3H] GR-65630); assay type: cell membranes, Membrane; settings: hek293; Not Active = under 50% inhibition at 10 µM
[5] = DRUGMATRIX: GABAA, Muscimol, Central radioligand binding (ligand: [3H] Muscimol); assay type: cell membranes, Rattus norvegicus, Wistar, Brain, Membrane; settings: Not Active = under 50% inhibition at 10 µM
[6] = DRUGMATRIX: Glutamate, NMDA, Agonism radioligand binding (ligand: [3H] CGP-39653); assay type: cell membranes, Rattus norvegicus, Wistar, Cerebral cortex, Membrane; settings: Not Active = under 50% inhibition at 10 µM

C#C[C@]1(O)CC[C@H]2[C@@H]3[C@H](C)CC4=C(CCC(=O)C4)[C@H]3CC[C@@]21C [TIBOLONE]
IC50 [1]: Not Active
IC50 ([2]; sf9): Not Active
IC50 ([3]; cho): Not Active
IC50 [4]: Not Active
Ki [4]: Not Active
IC50 [5]: Not Active
Ki [5]: Not Active
IC50 [6]: Not Active
Ki [6]: Not Active

CN1C(=O)OC(C)(C)C1=O [TRIMETHADIONE]
IC50 [1]: Not Active
IC50 ([2]; sf9): Not Active
IC50 ([3]; cho): Not Active
IC50 [4]: Not Active
Ki [4]: Not Active
IC50 [5]: Not Active
Ki [5]: Not Active
IC50 [6]: Not Active
Ki [6]: Not Active

OC[C@@H](O)[C@@H](O)[C@H](O)[C@H](O)CO [MANNITOL]
IC50 [1]: Not Active
IC50 ([2]; sf9): Not Active
IC50 ([3]; cho): Not Active
IC50 [4]: Not Active
Ki [4]: Not Active
IC50 [5]: Not Active
Ki [5]: Not Active
IC50 [6]: Not Active
Ki [6]: Not Active

CCN(CC)C(=S)SSC(=S)N(CC)CC
IC50 [1]: Not Active
IC50 ([2]; sf9): Not Active
IC50 ([3]; cho): Not Active
IC50 [4]: Not Active
Ki [4]: Not Active
IC50 [5]: Not Active
Ki [5]: Not Active
IC50 [6]: Not Active
Ki [6]: Not Active

O=C(O)c1cc(/N=N/c2ccc(S(=O)(=O)Nc3ccccn3)cc2)ccc1O [SULFASALAZINE]
IC50 [1]: Not Active
IC50 ([2]; sf9): Not Active
IC50 ([3]; cho): Not Active
IC50 [4]: Not Active
Ki [4]: Not Active
IC50 [5]: Not Active
Ki [5]: Not Active
IC50 [6]: Not Active
Ki [6]: Not Active

O=C(c1ccccc1)c1ccc2n1CCC2C(=O)O (centres undefined) [KETOROLAC]
IC50 [1]: Not Active
IC50 ([2]; sf9): Not Active
IC50 ([3]; cho): Not Active
IC50 [4]: Not Active
Ki [4]: Not Active
IC50 [5]: Not Active
Ki [5]: Not Active
IC50 [6]: Not Active
Ki [6]: Not Active

CC[C@H](C)[C@@H](CO[C@@H](Cc1ccccc1)C(=O)N[C@@H](CCS(C)(=O)=O)C(=O)OC(C)C)NC[C@@H](N)CS
IC50 [1]: Not Active
IC50 ([2]; read-out: IC50): 3140 nM
Ki ([2]; read-out: Ki): 456 nM
IC50 ([3]; cho): Not Active
IC50 [4]: Not Active
Ki [4]: Not Active
IC50 [5]: Not Active
Ki [5]: Not Active
IC50 [6]: Not Active
Ki [6]: Not Active

CC(C)(C)NC[C@H](O)COc1cccc2c1CCCC2=O [LEVOBUNOLOL]
IC50 [1]: Not Active
IC50 ([2]; sf9): Not Active
IC50 ([3]; read-out: IC50): 0.793 nM
Ki ([3]; read-out: Ki): 0.546 nM
IC50 [4]: Not Active
Ki [4]: Not Active
IC50 [5]: Not Active
Ki [5]: Not Active
IC50 [6]: Not Active
Ki [6]: Not Active

C[N+]1(C)[C@@H]2C[C@@H](OC(=O)[C@H](CO)c3ccccc3)C[C@H]1[C@@H]1O[C@@H]12.[Br-] [METHSCOPOLAMINE BROMIDE]
IC50 [1]: Not Active
IC50 ([2]; sf9): Not Active
IC50 ([3]; cho): Not Active
IC50 [4]: Not Active
Ki [4]: Not Active
IC50 [5]: Not Active
Ki [5]: Not Active
IC50 [6]: Not Active
Ki [6]: Not Active

CO[C@@H]1[C@@H](OC)[C@H](C)[C@@](O)(CC(=O)O)O[C@H]1[C@H](C)[C@H]1O[C@@]2(CC[C@@](C)([C@H]3CC[C@@](C)([C@@H]4O[C@@H]([C@H]5O[C@](C)(O)[C@H](C)C[C@@H]5C)C[C@@H]4O[C@@H]4C[C@H](OC)[C@@H](OC)[C@H](C)O4)O3)O2)C[C@H](O)[C@H]1C.N [MADURAMICIN]
IC50 [1]: Not Active
IC50 ([2]; sf9): Not Active
IC50 ([3]; cho): Not Active
IC50 [4]: Not Active
Ki [4]: Not Active
IC50 [5]: Not Active
Ki [5]: Not Active
IC50 [6]: Not Active
Ki [6]: Not Active

Cc1nnc(NS(=O)(=O)c2ccc(N)cc2)s1 [SULFAMETHIZOLE]
IC50 [1]: Not Active
IC50 ([2]; sf9): Not Active
IC50 ([3]; cho): Not Active
IC50 [4]: Not Active
Ki [4]: Not Active
IC50 [5]: Not Active
Ki [5]: Not Active
IC50 [6]: Not Active
Ki [6]: Not Active

Cc1cnc(NC(=O)C2=C(O)c3ccccc3S(=O)(=O)N2C)s1 [MELOXICAM]
IC50 [1]: Not Active
IC50 ([2]; sf9): Not Active
IC50 ([3]; cho): Not Active
IC50 [4]: Not Active
Ki [4]: Not Active
IC50 [5]: Not Active
Ki [5]: Not Active
IC50 [6]: Not Active
Ki [6]: Not Active

CC1=C(/C=C/C(C)=C/C=C/C(C)=C/C(=O)O)C(C)(C)CCC1 [TRETINOIN]
IC50 [1]: Not Active
IC50 ([2]; sf9): Not Active
IC50 ([3]; cho): Not Active
IC50 [4]: Not Active
Ki [4]: Not Active
IC50 [5]: Not Active
Ki [5]: Not Active
IC50 [6]: Not Active
Ki [6]: Not Active
